From ChEMBL document CHEMBL5729101, “CaMKII inhibitors and uses thereof” (2022) come the findings set out here.

Structures are written as SMILES.

The experiment can be described thus: In Vitro CaMKIIδ Activity Assay: The inhibition of CaMKII activity was evaluated using a coupled assay measuring ADP released following ATP hydrolysis and phosphor-transfer to the peptide substrate AC3 (KKALHRQETVDAL; SEQ ID NO: 1) (1). A full length, C-terminal His/Gln tagged CaMKIIδ construct was used.
Usually IC50 stands for the concentration at which inhibition is half-maximal. On to `c1ccc2c(c1)[nH]c1nccc(-c3cnn(C4CCNCC4)c3)c12`, for which the IC50 entry was “in the range around 55 µM”.
The figure for `NCCCNc1cccc(-c2ccnc3[nH]c4ccccc4c23)c1` is under 0.1 µM.
The entry for `NCc1cccc(-c2ccnc3[nH]c4ccccc4c23)c1` is “in the range around 55 µM”; for `Cc1ccc2[nH]c3nccc(-c4cccc(NCCN)c4)c3c2c1` it is under 0.1 µM.
The figure for `NCCOc1cccc(-c2ccnc3[nH]c4ccccc4c23)c1` is under 0.1 µM; for `Clc1cncc(-c2ccnc3[nH]c4ccccc4c23)c1` it is “in the range around 55 µM”.
Take `Cc1ccc2c(c1)[nH]c1nccc(-c3cccc(NCCN)c3)c12`: the IC50 is under 0.1 µM.
For the compound `NCCCOc1cccc(-c2ccnc3[nH]c4ccccc4c23)c1`, the IC50 was under 0.1 µM.
The value for `Clc1cnccc1-c1ccnc2[nH]c3ccccc3c12` was “in the range around 55 µM”; that for `C(=C/c1ccnc2[nH]c3ccccc3c12)/CN1CCNCC1` was “in the range around 55 µM”; that for `c1ccc2c(c1)[nH]c1nccc(-c3cnc(N4CCNCC4)s3)c12` was “in the range around 55 µM”.
The value for `NCCNc1cccc(-c2ccnc3[nH]c4ccccc4c23)c1` was under 0.1 µM; that for `c1cc(-c2ccnc3[nH]c4ccccc4c23)cc(-n2ccnc2)c1` was “in the range around 55 µM”.
The value for `NCCNc1cccc(-c2ccnc3[nH]c4ccc(Cl)cc4c23)c1` was under 0.1 µM; that for `Cc1nn(C2CCNCC2)cc1-c1ccnc2[nH]c3ccccc3c12` was “in the range around 55 µM”; that for `COc1ccc2c(c1)[nH]c1nccc(-c3cccc(NCCN)c3)c12` was under 0.1 µM.
As to `C(=C\c1ccnc2[nH]c3ccccc3c12)/CN1CCNCC1`, the IC50 result is “in the range around 55 µM”.
The figure for `c1cc(-c2ccnc3[nH]c4ccccc4c23)nc(N2CCNCC2)c1` is under 0.1 µM.
The entry for `c1ccc2c(c1)[nH]c1nccc(-n3cc(C4CCNCC4)nn3)c12` is “in the range around 55 µM”.
